Results published in paper PMC9867837 (Cancer letters, 2022).

Experiments:
[1] = target: SH2 domain of pure recombinant Stat3 (Homo sapiens, UniProt P40763); experiment: Stat3 fluorescence polarization (FP) assay; assay type: binding; conditions: 0–10 μM, 5-carboxyfluorescein-GpYLPQTV-NH2 probe
Method: Details are presented in Supplementary Information, “Methods”.
The Stat3:azetidine compound interaction was investigated further by focusing on how the compounds might interfere with Stat3 dimerization (Stat3:Stat3), which occurs via pTyr peptide:SH2 domain interaction. […]
confocal microscope (Stellaris 8-STED Super -resolution , Germany) with a 60x oil lens and images were processed by ImageJ software.
1.2.9. Fluorescence polarization assay (FP)
These studies were conducted as previously reported using the labeled phosphopeptide, 5-carboxyfluorescein GpYLPQTV-NH 2 (where pY represents phospho-Tyr) as probe and purified recombinant Stat3, with some modifications. […]
10 µM of unlabeled GpYLPQTV-NH 2 (positive control) or H182 at 30 °C for 30 min in the indicated assay buffer conditions, prior to the addition of the labeled probe at 10 nM final concentration and incubated for 30 min at room temperature, and thereafter reading the FP signal at 10, 30, and 60 min using the SpectraMax ID5 (Molecular Devices, San Jose, CA), with the set gain adjustment at 35 mP. In some cases, the recombinant His-Stat3 was pre-incubated with the unlabeled GpYLPQTV-NH 2 or H182 at 0-10 µM for 10 min or at 0-50 µM for 30 min prior to incubation with the labeled probe, and thereafter reading the FP signal at 10, 30, or 60 min using the SpectraMax ID5, with the set gain adjustment at 35 mP.
1.2.10. […]

[2] = test system: Stat3-independent pLucSRE luciferase reporter; experiment: Stat3-independent luciferase reporter pLucSRE in NIH3T3/v-Src; assay type: cell-based, mouse; conditions: 1–3 μM H182 for 1 h
[3] = test system: pS727Stat3, pYStat1, pY416Src, pY1068EGFR, pShc, pErk1/2MAPK, pS473Akt, and pJAK2; experiment: Western blotting for other signaling proteins in TNBC cells; assay type: cell-based, human; conditions: MDA-MB-231 and MDA-MB-468, 0.5–3 μM H182 for 2 h
Method: These studies were performed as previously described. Details are presented in Supplementary Information, “Methods”.
We sought to assess any non-specific effects of the azetidine compounds. […] Samples of equal total protein were subjected to SDS-PAGE and Western blotting analysis. […] The total protein levels were unchanged, and the tubulin, β-actin, and GAPDH levels show equal protein loading.
These studies were performed as previously described [1 -3] . Briefly, snap-frozen tumor tissues or cultured cells treated or not were harvested and whole-cell or tissue lysates were prepared in radioimmunoprecipitation assay (RIPA) buffer. Samples of equal total protein were subjected to SDS - PAGE and immunoblotting analysis. Primary antibodies used were anti- Stat3, pY705-Stat3, pS727Stat3, […]
Akt, pT202/Y204Erk1/2 (p44/42), Erk1/2, PARP , caspase 3, c-Myc, survivin, VEGF, β-actin, α/β-tubulin, and GAPDH. For the studies of the effects of cell density and confluence on pY705Stat3, cells were seeded […] in culture dishes. The next day, cells were untreated (DMSO control, […]
concentration of H182 for 6 h and then treated with 0- 100 nM docetaxel or 0-20 µM cisplatin for a total of 72 h. Viable cell numbers were assessed by a CyQuant cell proliferation kit according to the manufacturer’s instructions (Thermo/Life Technologies Corp, Carlsbad, CA). […]

Plasma stability, mouse = assay type: in vitro ADME
Method: Solubility, human (HLM) and mouse liver microsomal (MLM), and plasma stability studies were performed by Eurofins Cerep Panlabs and Eurofin Discovery Services (www.eurofins.com/PharmaDiscovery), while protein binding studies were performed by Sanford Burnham Prebys Chemical Biology & Drug Discovery Core using standard protocols.

[4] = target: T1, glucocorticoid receptor (GR) (Homo sapiens, UniProt P04150); experiment: CEREP SafetyScreen44, glucocorticoid receptor; assay type: binding
T1 construct: Eurofins-CEREP (SafetyScreen44 panel)
T1 sequence (P04150 whole entry): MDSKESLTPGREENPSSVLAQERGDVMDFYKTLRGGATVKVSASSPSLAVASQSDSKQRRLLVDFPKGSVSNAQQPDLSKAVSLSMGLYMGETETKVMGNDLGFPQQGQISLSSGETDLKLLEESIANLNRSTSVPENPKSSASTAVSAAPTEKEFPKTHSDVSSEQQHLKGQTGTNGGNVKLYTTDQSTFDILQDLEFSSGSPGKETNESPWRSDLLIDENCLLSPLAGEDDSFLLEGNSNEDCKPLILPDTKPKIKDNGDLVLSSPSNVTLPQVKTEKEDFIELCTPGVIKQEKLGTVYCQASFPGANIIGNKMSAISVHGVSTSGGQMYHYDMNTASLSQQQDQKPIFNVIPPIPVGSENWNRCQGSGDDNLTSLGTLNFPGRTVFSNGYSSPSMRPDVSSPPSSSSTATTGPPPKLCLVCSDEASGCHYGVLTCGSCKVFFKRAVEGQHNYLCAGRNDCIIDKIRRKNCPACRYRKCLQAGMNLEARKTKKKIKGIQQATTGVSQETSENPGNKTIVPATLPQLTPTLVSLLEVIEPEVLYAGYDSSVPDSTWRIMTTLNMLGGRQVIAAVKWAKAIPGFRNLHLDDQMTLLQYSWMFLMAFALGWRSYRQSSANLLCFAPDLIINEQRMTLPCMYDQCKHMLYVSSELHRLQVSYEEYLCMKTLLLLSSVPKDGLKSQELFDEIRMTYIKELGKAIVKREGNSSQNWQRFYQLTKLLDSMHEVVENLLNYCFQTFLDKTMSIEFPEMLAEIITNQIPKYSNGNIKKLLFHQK

Chain of SH2 domain of pure recombinant Stat3 (P40763 whole entry, the tested form may be a part): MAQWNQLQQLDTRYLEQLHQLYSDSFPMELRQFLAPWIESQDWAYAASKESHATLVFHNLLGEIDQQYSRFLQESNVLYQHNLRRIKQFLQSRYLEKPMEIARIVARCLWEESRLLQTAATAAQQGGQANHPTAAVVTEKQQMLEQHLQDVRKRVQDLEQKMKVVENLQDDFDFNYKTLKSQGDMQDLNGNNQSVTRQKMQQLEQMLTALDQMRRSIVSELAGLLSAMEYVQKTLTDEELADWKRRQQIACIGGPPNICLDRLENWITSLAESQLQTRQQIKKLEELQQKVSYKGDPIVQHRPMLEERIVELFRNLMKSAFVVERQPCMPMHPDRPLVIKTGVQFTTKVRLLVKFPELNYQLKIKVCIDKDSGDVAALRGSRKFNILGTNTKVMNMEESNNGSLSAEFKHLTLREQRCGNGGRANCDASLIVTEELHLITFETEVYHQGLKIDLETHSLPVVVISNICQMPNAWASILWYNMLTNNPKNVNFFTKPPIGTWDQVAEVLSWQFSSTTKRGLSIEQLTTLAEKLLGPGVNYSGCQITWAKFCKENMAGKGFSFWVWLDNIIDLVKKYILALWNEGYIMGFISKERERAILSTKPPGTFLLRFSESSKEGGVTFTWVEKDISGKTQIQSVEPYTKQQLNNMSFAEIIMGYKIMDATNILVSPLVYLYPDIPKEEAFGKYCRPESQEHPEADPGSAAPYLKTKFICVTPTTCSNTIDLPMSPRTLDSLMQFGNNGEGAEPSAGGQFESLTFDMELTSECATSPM

## O=C([C@H]1CCN1S(=O)(=O)c1c(F)c(F)c(F)c(F)c1F)N(Cc1ccc(C2CCCCC2)cn1)c1ccc2c(=O)[nH]ncc2c1 [Compound H182]
[1]
  Effect on FP signal: fluctuations of the FP signal
[2]
  Effect on pLucSRE luciferase reporter expression: no changes
[3]
  Effect on constitutive or EGF-induced pS727Stat3, pYStat1, pY416Src, pY1068EGFR, pShc, pErk1/2MAPK, pS473Akt, and pJAK2: no inhibitory effect
Plasma stability, mouse; 1 h
  remaining at 1 h: 69%
Plasma stability, mouse; 2 h
  remaining at 2 h: 23%
[4]; 10 μM H182
  inhibition at 10 µM: > 80%
[4]; SafetyScreen44 follow-up dose-response
  IC50: 110 nM
